1 substance from patent US20250197642A1, “PHTHALOCYANINE PIGMENT, PHTHALOCYANINE COMPOUND, COLORING COMPOSITION, METHOD FOR PRODUCING PHTHALOCYANINE PIGMENT, AND METHOD FOR PRODUCING COLORING COMPOSITION” (FUJIFILM CORPORATION, priority 2022, published 2025) can be followed below.

Data set [1] in a line: Evaluation of light fastness (compound residual rate after xenon light irradiation of ink jet image). It counts as physicochemical. As to conditions: aqueous coloring compositions 1 to 8 and A to C; image on art paper, xenon light 85,000 lux, 100 hours. From the text:
The pigment dispersion liquid 1, a polyurethane resin (HYDRAN (registered trademark) AP-40F (manufactured by DIC Corporation)), and deionized water were mixed to produce an aqueous pigment dispersion liquid 1 having a pigment content of 10% by mass and a polyurethane resin non-volatile content of 2% by mass.
The following components were mixed to obtain a coloring composition 1.
Coloring compositions 2 to 8 were obtained in the same manner as in the above-described method, except that the pigment dispersion liquid 1 was changed to each of the pigment dispersion liquids 2 to 8.
A coloring composition A was obtained in the same manner as in the above-described method, except that the pigment dispersion liquid 1 was changed to the pigment dispersion liquid A. […]
The above-described image was irradiated with xenon light (85,000 lux) for 100 hours using a weather meter (manufactured by Atlas, Ci65), and a reflection density after the irradiation with xenon light was measured using a reflection densitometer (manufactured by X-Rite, Inc., trade name: X-Rite i1Pro). […]
A compound residual rate (%) before and after the irradiation with xenon light was calculated from the following expression, and evaluated based on the following evaluation standard. […]

Data set [2] in a line: Evaluation of storage stability (viscosity increase proportion after storage). Format: physicochemical. As to conditions: aqueous coloring compositions 1 to 8 and A to C; stored 7 days at 45° C., viscosity at 25° C. On the procedure:
In an environment of 45° C. by an oven, the coloring compositions 1 to 8 and the coloring compositions A to C were stored for 7 days.
A viscosity of the coloring composition before and after the storage was measured, a viscosity increase proportion (Viscosity after storage−Viscosity before storage)/Viscosity before storage×100 was determined, and the evaluation was performed based on the following evaluation standard.
The viscosity of the coloring composition was measured using a viscometer RE85L (rotor: 1°34′×R24, measurement range: 0.6 to 1200 mPa·s) manufactured by TOKI-SANGYO Co., Ltd. in a state in which the temperature was adjusted to 25° C.
• A: viscosity increase proportion was 10% or less. • B: viscosity increase proportion was more than 10%.

Take C. I. Pigment Green 58 [PG58]: the “Evaluation of light fastness” value in data set [1] was “A (compound residual rate was 80% or more)”. Moreover, in data set [2], the “Evaluation of storage stability” value is listed as “B (viscosity increase proportion was more than 10%)”.
